Molecular target: human mGluR5 receptor (Homo sapiens (Human), UniProt P41594)
Assay: Calcium influx assay based on fluorescence (mGluR5 PAM activity)
Conditions: human mGluR5 receptor-overexpressed HEK293 cell line; L-glutamate EC20; Fluo-4, FLIPR
Procedure: Efficacy as a positive allosteric modulator (PAM) of mGluR5 of the compounds of the Examples was tested as follows:
Calcium Influx Assay Based on Fluorescence
Ca^2+ (calcium) influx assay is an experiment for measuring the activity of a positive allosteric modulator of mGluR5 receptor in which human mGluR5 receptor-overexpressed HEK293 cell line is used. The day before the experiment, cells were prepared in a cell culture medium (DMEM, 5% FBS) with the density of 80,000/well, and 100 μl of cells were dispensed into each well of a poly-D-lysine-coated 96-well plate. Cells were incubated in a 5% CO2, 37° C. incubator. The next day, the cell culture medium was removed from the plate, and 100 μl of 1× Fluo-4 calcium indicator diluted with a buffer (1× Hank's balanced salt solution, 20 mM HEPES, 2.5 mM probenecid) were added to each well and incubated at 37° C. for 1 hour. The compound stock solutions were prepared in 100% DMSO, and the compounds were serially diluted with a ¼ dilution to 6 or 7 concentrations (final concentration was 10 μM to 10 nM). The diluted compound solutions were added to the plate with 0.1 to 0.2% of final DMSO concentration. 1 hour after the addition of Fluo-4 calcium indicator, L-glutamate (EC20 concentration) and the test compound solutions were added to the plate, and Ca^2+ reaction was then measured by FLIPR at room temperature. The activity of the compounds was standardized on the basis of the results of maximum value-minimum value of fluorescent reaction, and the activity value was calculated on the basis that no activity on glutamate EC20 is 0% and the reaction to glutamate maximum value is 100%.

Sequence of human mGluR5 receptor (P41594 21-1212): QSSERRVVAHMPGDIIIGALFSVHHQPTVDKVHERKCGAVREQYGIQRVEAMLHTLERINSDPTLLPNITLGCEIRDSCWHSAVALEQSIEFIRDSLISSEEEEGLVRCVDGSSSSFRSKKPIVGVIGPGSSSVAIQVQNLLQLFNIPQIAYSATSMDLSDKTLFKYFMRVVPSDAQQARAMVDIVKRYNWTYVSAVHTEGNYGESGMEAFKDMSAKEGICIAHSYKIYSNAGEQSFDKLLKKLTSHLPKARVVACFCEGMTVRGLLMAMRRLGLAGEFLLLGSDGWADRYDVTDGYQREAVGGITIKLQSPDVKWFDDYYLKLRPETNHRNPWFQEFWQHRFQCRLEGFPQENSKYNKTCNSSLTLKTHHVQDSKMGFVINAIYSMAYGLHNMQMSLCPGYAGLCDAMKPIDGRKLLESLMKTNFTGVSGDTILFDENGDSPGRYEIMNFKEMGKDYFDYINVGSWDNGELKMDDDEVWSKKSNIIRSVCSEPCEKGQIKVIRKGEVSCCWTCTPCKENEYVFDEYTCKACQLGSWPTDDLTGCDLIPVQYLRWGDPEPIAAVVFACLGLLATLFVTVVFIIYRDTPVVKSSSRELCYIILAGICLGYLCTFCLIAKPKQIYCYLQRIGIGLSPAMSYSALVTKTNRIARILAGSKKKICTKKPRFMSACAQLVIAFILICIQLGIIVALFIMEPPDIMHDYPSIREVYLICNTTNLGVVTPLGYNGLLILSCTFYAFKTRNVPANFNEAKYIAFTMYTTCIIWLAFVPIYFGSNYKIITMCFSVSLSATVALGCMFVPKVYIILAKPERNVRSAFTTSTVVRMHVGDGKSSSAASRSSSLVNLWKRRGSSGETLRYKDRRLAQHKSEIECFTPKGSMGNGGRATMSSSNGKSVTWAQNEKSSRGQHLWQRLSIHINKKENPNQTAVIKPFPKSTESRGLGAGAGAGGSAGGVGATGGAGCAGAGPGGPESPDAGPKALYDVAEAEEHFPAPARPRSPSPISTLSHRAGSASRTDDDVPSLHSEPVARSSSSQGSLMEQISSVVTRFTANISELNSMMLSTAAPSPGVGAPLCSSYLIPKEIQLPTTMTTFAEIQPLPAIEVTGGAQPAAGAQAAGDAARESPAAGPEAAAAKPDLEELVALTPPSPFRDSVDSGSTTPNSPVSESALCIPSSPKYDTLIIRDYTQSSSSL

Structure (SMILES)	EC50 [nM]
Fc1ccc(OCc2cn3cc(-c4ccc(F)cc4C(F)(F)F)cnc3n2)nc1 [Example 119, 2-[(5-fluoro-2-pyridyl)oxymethyl]-6-[4-fluoro-2-(trifluoromethyl)phenyl]imidazo[1,2-a]pyrimidine]	100 to 500
NC(=O)OCc1cc(F)ccc1-c1cnc2nc(COc3ccc(F)cc3)cn2c1 [Example 193, [5-fluoro-2-[2-[(4-fluorophenoxy)methyl]imidazo[1,2-a]pyrimidin-6-yl]phenyl]methyl carbamate]	100 to 500
Nc1cccc(-c2cnc3nc(COc4ccccc4)cn3c2)c1 [Example 9, 6-(3-aminophenyl)-2-phenoxymethylimidazo[1,2-a]pyrimidine]	500 to 1000
Fc1ccc(-c2cnc3nc(COc4ccc(F)cn4)cn3c2)cc1 [Example 129, 6-(4-fluorophenyl)-2-[(5-fluoro-2-pyridyl)oxymethyl)imidazo[1,2-a]pyrimidine]	500 to 1000
Cc1ccc(-c2cnc3nc(COc4ccc(F)cc4)cn3c2)cn1 [Example 92, 2-[(4-fluorophenoxy)methyl]-6-(6-methyl-3-pyridyl)imidazo[1,2-a]pyrimidine]	100 to 500
Oc1cc(F)ccc1-c1cnc2nc(COc3cncc(F)c3)cn2c1 [Example 156, 6-(4-fluoro-2-hydroxyphenyl)-2-(5-fluoropyridin-3-yloxymethyl)imidazo[1,2-a]pyrimidine]	100 to 500
Fc1ccc(-c2cnc3nc(COc4ccnc(F)c4)cn3c2)c(C(F)(F)F)c1 [Example 174, 2-[(2-fluoro-4-pyridyl)oxymethyl]-6-[4-fluoro-2-(trifluoromethyl)phenyl]imidazo[1,2-a]pyrimidine]	100 to 500
Cc1ccc(N)c(-c2cnc3nc(COc4cccc(F)c4)cn3c2)c1 [Example 100, 2-[2-[(3-fluorophenoxy)methyl]imidazo[1,2-a]pyrimidin-6-yl]-4-methyl-aniline]	500 to 1000
Fc1ccc(OCc2cn3cc(-c4ccc(F)cc4F)cnc3n2)cc1 [Example 47, 6-(2,4-difluorophenyl)-2-(4-fluorophenoxymethyl)imidazo[1,2-a]pyrimidine]	100 to 500
Fc1ccc(OCc2cn3cc(-c4ccc(C(F)(F)F)nc4)cnc3n2)cc1 [Example 65, 2-[(4-fluorophenoxy)methyl]-6-[6-(trifluoromethyl)-3-pyridyl]imidazo[1,2-a]pyrimidine]	100 to 500
Fc1ccc(-c2cnc3nc(COc4ccccc4)cn3c2)cc1 [Example 8, 6-(4-fluorophenyl)-2-phenoxymethylimidazo[1,2-a]pyrimidine]	100 to 500
Cc1cc(F)ccc1-c1cnc2nc(COc3ccc(F)nc3)cn2c1 [Example 158, 6-(4-fluoro-2-methylphenyl)-2-(6-fluoropyridin-3-yloxymethyl)imidazo[1,2-a]pyrimidine]	100 to 500
Fc1cccc(OCc2cn3cc(-c4ccc(F)nc4F)cnc3n2)c1 [Example 71, 6-(2,6-difluoro-3-pyridyl)-2-[(3-fluorophenoxy)methyl]imidazo[1,2-a]pyrimidine]	100 to 500
Fc1ccc(-c2cnc3nc(COc4ccnc(F)c4)cn3c2)c(F)c1 [Example 161, 6-(2,4-difluorophenyl)-2-(2-fluoropyridin-4-yloxymethyl)imidazo[1,2-a]pyrimidine]	100 to 500
Fc1ccc(-c2cnc3nc(COc4ccccn4)cn3n2)c(C(F)(F)F)c1 [Example 186, 2-[4-fluoro-2-(trifluoromethyl)phenyl]-6-(2-pyridyloxymethyl)imidazo[1,2-b][1,2,4]triazine]	100 to 500
FC(F)(F)c1cc(Cl)ccc1-c1cnc2nc(COc3ccccn3)cn2n1 [Example 189, 2-[4-chloro-2-(trifluoromethyl)phenyl]-6-(2-pyridyloxymethyl)imidazo[1,2-b][1,2,4]triazine]	500 to 1000
Fc1ccc(OCc2cn3cc(-c4cnccc4Cl)cnc3n2)cc1 [Example 87, 6-(4-chloro-3-pyridyl)-2-[(4-fluorophenoxy)methyl]imidazo[1,2-a]pyrimidine]	500 to 1000
Oc1cc(F)ccc1-c1cnc2nc(COc3ccnc(F)c3)cn2c1 [Example 167, 6-(4-fluoro-2-hydroxyphenyl)-2-(2-fluoropyridin-4-yloxymethyl)imidazo[1,2-a]pyrimidine]	100 to 500
Fc1ccc(-c2cnc3nc(COc4ccncc4)cn3n2)c(F)c1 [Example 179, 2-(2,4-difluorophenyl)-6-((pyridin-4-yloxy)methyl)imidazo[1,2-b][1,2,4]triazine]	100 to 500
Fc1ccc(-c2cnc3nc(COc4ccnc(Cl)c4)cn3c2)cc1 [Example 172, 2-[(2-chloro-4-pyridyl)oxymethyl]-6-(4-fluorophenyl)imidazo[1,2-a]pyrimidine]	100 to 500
Fc1ccc(-c2cnc3nc(COc4ccccc4)cn3c2)cn1 [Example 31, 6-(6-fluoropyridin-3-yl)-2-phenoxymethylimidazo[1,2-a]pyrimidine]	100 to 500
Fc1ccc(OCc2cn3cc(-c4ccccc4)cnc3n2)cc1 [Example 56, 2-[(4-fluorophenoxy)methyl]-6-phenyl-imidazo[1,2-a]pyrimidine]	100 to 500
Fc1cncc(OCc2cn3cc(-c4ccc(F)cc4C(F)(F)F)cnc3n2)c1 [Example 173, 2-[(5-fluoro-3-pyridyl)oxymethyl]-6-[4-fluoro-2-(trifluoromethyl)phenyl]imidazo[1,2-a]pyrimidine]	500 to 1000

More lines, now with the values ahead:

EC50 [nM]	Structure (SMILES)
100 to 500	Fc1cccc(-c2cnc3nc(COc4ccccc4)cn3c2)c1F [Example 7, 6-(2,3-difluorophenyl)-2-phenoxymethylimidazo[1,2-a]pyrimidine]
500 to 1000	Fc1ccnc(OCc2cn3cc(-c4cccc(F)c4F)cnc3n2)c1 [Example 122, 6-(2,3-difluorophenyl)-2-[(4-fluoro-2-pyridyl)oxymethyl)imidazo[1,2-a]pyrimidine]
100 to 500	Fc1ncccc1-c1cnc2nc(COc3ccccc3)cn2c1 [Example 29, 6-(2-fluoropyridin-3-yl)-2-phenoxymethylimidazo[1,2-a]pyrimidine]
100 to 500	Cc1ccccc1-c1cnc2nc(COc3cncc(F)c3)cn2c1 [Example 153, 6-(2-methylphenyl)-2-(5-fluoro-pyridin-3-yloxymethyl)imidazo[1,2-a]pyrimidine]
100 to 500	Fc1ccc(-c2cnc3nc(COc4cc(F)ccn4)cn3c2)cc1 [Example 123, 6-(4-fluorophenyl)-2-[(4-fluoro-2-pyridyl)oxymethyl)imidazo[1,2-a]pyrimidine]
100 to 500	Oc1ccccc1-c1cnc2nc(COc3ccnc(F)c3)cn2c1 [Example 169, 6-(2-hydroxyphenyl)-2-(2-fluoropyridin-4-yloxymethyl)imidazo[1,2-a]pyrimidine]
100 to 500	Fc1ccccc1-c1cnc2nc(COc3ccccc3)cn2c1 [Example 1, 6-(2-fluorophenyl)-2-phenoxymethylimidazo[1,2-a]pyrimidine]
100 to 500	COc1c(F)cccc1-c1cnc2nc(COc3ccccn3)cn2c1 [Example 112, 6-(3-fluoro-2-methoxy-phenyl)-2-(2-pyridyloxymethyl)imidazo[1,2-a]pyrimidine]
100 to 500	COc1cc(F)ccc1-c1cnc2nc(COc3ccnc(F)c3)cn2c1 [Example 163, 6-(4-fluoro-2-methoxyphenyl)-2-(2-fluoropyridin-4-yloxymethyl)imidazo[1,2-a]pyrimidine]
100 to 500	COc1cc(C#N)ccc1-c1cnc2nc(COc3ccc(F)cn3)cn2c1 [Example 137, 4-[2-[(5-fluoro-2-pyridyl)oxymethyl]imidazo[1,2-a]pyrimidin-6-yl]-3-methoxy-benzonitrile]
100 to 500	Nc1cc(F)ccc1-c1cnc2nc(COc3ccccc3)cn2c1 [Example 27, 6-(2-amino-4-fluorophenyl)-2-phenoxymethylimidazo[1,2-a]pyrimidine]
100 to 500	Cc1cc(-c2cnc3nc(COc4ccccc4)cn3c2)cnc1F [Example 39, 6-(6-fluoro-5-methyl-3-pyridyl)-2-phenoxymethylimidazo[1,2-a]pyrimidine]
500 to 1000	COc1cc(-c2cnc3nc(COc4ccc(F)cc4)cn3c2)ccn1 [Example 99, 2-[(4-fluorophenoxy)methyl]-6-(2-methoxy-4-pyridyl)imidazo[1,2-a]pyrimidine]
100 to 500	Cc1ccncc1-c1cnc2nc(COc3ccccc3)cn2c1 [Example 32, 6-(4-methylpyridin-3-yl)-2-phenoxymethylimidazo[1,2-a]pyrimidine]
100 to 500	Cc1ccncc1-c1cnc2nc(COc3cccc(F)c3)cn2c1 [Example 46, 6-(4-methylpyridin-3-yl)-2-(3-fluorophenoxymethyl)imidazo[1,2-a]pyrimidine]
100 to 500	COc1cc(F)ccc1-c1cnc2nc(COc3ccccn3)cn2c1 [Example 104, 6-(4-fluoro-2-methoxyphenyl)-2-(pyridin-2-yloxymethyl)imidazo[1,2-a]pyrimidine]
100 to 500	CSc1cc(F)ccc1-c1cnc2nc(COc3ccccn3)cn2c1 [Example 138, 6-(4-fluoro-2-methylsulfanyl-phenyl)-2-(2-pyridyloxymethyl)imidazo[1,2-a]pyrimidine]

From patent US9745310B2 (SK BIOPHARMACEUTICALS CO., LTD., priority 2015, dated 2017)
